The record followed here is paper PMC8350397, “GSK137, a potent small-molecule BCL6 inhibitor with in vivo activity, suppresses antibody responses in mice” (The Journal of Biological Chemistry, 2021).

The target in this experiment is T1, human BCL6 BTB-POZ domain (BCL6 co-repressor peptide) (Homo sapiens, UniProt P41182, C67R/C84N/C8Q).
T1 construct: BCL6-Flag-6H-Avi (5-129) C8Q, C67R, C84N proteins; Flag (C); 6H (His6) (C); made in house; host or cells: E. coli
As to the kind of experiment: BCL6 TR-FRET assay, BCOR peptide displacement. It counts as binding. Conditions: read-out: pIC50 Human TR-FRET BCL6 co-repressor (converted). As for the experimental part:
Human, mouse and rat BCL6-Flag-6H-Avi (5-129) C8Q, C67R, C84N proteins were expressed in E. coli according to standard procedures and purified on Ni-NTA, followed by ion exchange on a Source 30Q column and size exclusion on an Superdex 200 column in a buffer of 20 mM Tris, 250 mM NaCl, 5 mM DTT, 5% glycerol, pH 8.5. All protein purities were estimated to be >90% by SDS-PAGE and the expected masses were confirmed by MS analysis. For TR-FRET assay protein was enzymatically biotinylated by treatment of protein at 100 µM with a 2 fold molar excess of biotin in the presence of 2 mM ATP and 1 µM BirA enzyme in a buffer of 50 mM bicine pH 8.3, 10 mM MgCl2 at 30 °C for 1 hour, followed by extensivedialysis against 50 mM Tris-Cl pH 8.0, 100 mM NaCl, 1 mM DTT using a 3.5 kDa cut-off membrane. Biotinylation was confirmed by MS analysis and concentration was determined by Bradford assay, after which protein was stored in aliquots at -80 °C.
Acceptor-labelled SMRT peptide H2N-[…](D2)-OH was dissolved in water by mass to give a 500 µM stock solution which was stored at -20 °C. Acceptor-labelled NCOR peptide H2N-[…](Alexa Fluor 647)-OH and acceptor-labelled BCOR peptide H2N-[…](Alexa Fluor 647)-OH were dissolved to a nominal concentration of 1 mM in DMSO, and stock solution concentration was determined by absorbance at 650 nm using an extinction coefficient of 270,000 M-1cm^-1. […]
Background: In TR-FRET formats the signal depends on donor and acceptor labels being close together.

With `Cc1ncccc1[C@H]1C[C@@H](c2cccc3nc(N)ccc23)Nc2c(F)cnn21` [GSK137, 5-((5S,7R)-3-Fluoro-7-(2-methylpyridin-3-yl)-4,5,6,7-tetrahydropyrazolo[1,5-a]pyrimidin-5-yl)quinolin-2-amine], the IC50 is 25.1 nM.
